Source: patent US7550485B2, “Substituted N-heterocycle derivatives and methods of their use” (Wyeth, priority 2003, dated 2009)
Structures can show the parent of a compound that is named as a salt.

Target: T1, hNET (Homo sapiens, UniProt P23975)
T1 construct: expressed in transfected cells
Test: Norepinephrine (NE) uptake assay in MDCK-Net6 cells stably transfected with human hNET
Format: cell-based
Settings: [3H]NE uptake; for inhibition at 1 µM: MDCK-Net6, 1 μM test compound; for EC50: test range 1 to 10,000 nM; for inhibition at 30 µM: MDCK-Net6, 30 μM test compound (stated in cell)
Outline: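 MDCK-Net6 cells preincubated 20 min at 37 °C with compound (1 to 10,000 nM) in HEPES buffer pH 7.4 with pargyline and ascorbate, then 5 min [3H]NE uptake (120 nM final). Lysed cells counted by scintillation; 1 μM desipramine defined minimum uptake; EC50 from logistic fit of pooled data.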

T1 sequence (P23975 whole entry): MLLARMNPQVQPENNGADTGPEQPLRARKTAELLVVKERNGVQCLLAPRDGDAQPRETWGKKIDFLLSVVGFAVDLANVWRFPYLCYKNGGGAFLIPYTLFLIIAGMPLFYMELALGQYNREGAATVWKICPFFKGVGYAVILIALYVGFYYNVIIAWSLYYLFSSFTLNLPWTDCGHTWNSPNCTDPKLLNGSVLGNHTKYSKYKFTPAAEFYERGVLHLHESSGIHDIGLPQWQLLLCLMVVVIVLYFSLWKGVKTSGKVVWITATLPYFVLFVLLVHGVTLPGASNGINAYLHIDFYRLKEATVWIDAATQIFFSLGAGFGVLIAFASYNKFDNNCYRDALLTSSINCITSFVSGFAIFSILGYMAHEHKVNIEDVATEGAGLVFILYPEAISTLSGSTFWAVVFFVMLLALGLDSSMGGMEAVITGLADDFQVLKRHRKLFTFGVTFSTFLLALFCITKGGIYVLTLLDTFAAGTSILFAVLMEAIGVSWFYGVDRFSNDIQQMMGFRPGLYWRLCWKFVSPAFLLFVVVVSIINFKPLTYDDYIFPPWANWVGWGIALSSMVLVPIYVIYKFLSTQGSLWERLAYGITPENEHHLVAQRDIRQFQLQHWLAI

inhibition at 1 µM [%]	SMILES	further results
79	CN(C)C1CCN(CC(c2ccc(OCc3ccc4ccccc4c3)c(Cl)c2)C2(O)CCCCC2)CC1 (stereo not drawn) [Example 431, 1-{1-[3-chloro-4-(2-naphthylmethoxyl)phenyl]-2-[4-(dimethylamino)piperidin-1-yl]ethyl}cyclohexanol dihydrochloride]	EC50: 54 nM
91.1	OC1(C(CN2CCC(N3CCCCC3)CC2)c2ccc(OC(F)(F)F)cc2)CCCCC1 (stereo not drawn) [Example 284, 1-{2-(1,4′-bipiperidin-1′-yl)-1-[4-(trifluoromethoxy)phenyl]ethyl}cyclohexanol dihydrochloride]	
77.8	CN[C@H]1CCN(CC(c2cccc(Cl)c2)C2(O)CCCCC2)C1 (stereo partly drawn) [Example 198, 1-1-{1-(3-chlorophenyl)-2-[(3S)-3-(methylamino)pyrrolidin-1-yl]ethyl}cyclohexanol dihydrochloride]	
92	CN[C@H]1CCCN(CC(c2ccc(OCc3ccccc3)c(Cl)c2)C2(O)CCCCC2)C1 (stereo partly drawn) [Example 195, 1-{1-[4-(benzyloxy)-3-chlorophenyl]-2-[(3S)-3-(methylamino)piperidin-1-yl]ethyl}cyclohexanol dihydrochloride]	
67.5	OC1(C(CN2CCC(N3CCCC3)CC2)c2cccc(Oc3ccccc3)c2)CCCCC1 (stereo not drawn) [Example 316, 1-[1-(3-phenoxyphenyl)-2-(4-pyrrolidin-1-ylpiperidin-1-yl)ethyl]cyclohexanol dihydrochloride]	
79	COc1cc(C(CN2CCC(N(C)C)CC2)C2(O)CCCCC2)ccc1OCc1ccccc1 (stereo not drawn) [Example 451, 1-{1-[4-(benzyloxy)-3-methoxyphenyl]-2-[4-(dimethylamino)piperidin-1-yl]ethyl}cyclohexanol dihydrochloride]	
57	CN(C)C1CCN(CC(c2cccc(Cl)c2)C2(O)CCCCC2)CC1 (stereo not drawn) [Example 36, 1-{1-(3-chlorophenyl)-2-[4-(dimethylamino)piperidin-1-yl]ethyl}cyclohexanol dihydrochloride]	EC50: 130 nM
76	CN(C)[C@H]1CCCN(CC(c2ccc(OCc3ccccc3)c(Cl)c2)C2(O)CCCCC2)C1 (stereo partly drawn) [Example 197, 1-{1-[4-(benzyloxy)-3-chlorophenyl]-2-[(3S)-3-(dimethylamino)piperidin-1-yl]ethyl}cyclohexanol dihydrochloride]	
71	CNC1CCN(C[C@H](c2cccc(Cl)c2)C2CCCCC2)CC1 (single isomer, unassigned) [Example 355, dihydrochloride]	EC50: 730 nM
37.5	N[C@@H]1CCN(CC(c2cccc(Cl)c2)C2(O)CCCCC2)C1 (stereo partly drawn) [Example 201, 1-[2-[(3R)-3-aminopyrrolidin-1-yl]-1-(3-chlorophenyl)ethyl]cyclohexanol dihydrochloride]	
95.5	OC1(C(CN2CCC(N3CCCCC3)CC2)c2cccc(Oc3ccccc3)c2)CCCCC1 (stereo not drawn) [Example 314, 1-[2-(1,4′-bipiperidin-1′-yl)-1-[3-(phenoxyphenyl)ethyl]cyclohexanoldihydrochloride]	
86	CNC1CCN(C[C@H](c2cccc(OC(F)(F)F)c2)C2(O)CCCCC2)CC1 [Example 359, 1-{(1S)-2-[4-(methylamino)piperidin-1-yl]-1-[3-(trifluoromethoxy)phenyl]ethyl}cyclohexanol dihydrochloride]	EC50: 290 nM
56	CNC1CCN(C[C@@H](c2cccc(Cl)c2)C2CCCCC2)CC1 (single isomer, unassigned) [Example 356, dihydrochloride]	
	CNC1CCN(CC(c2cccc(C(F)(F)F)c2)C2(O)CCCCC2)C1 (stereo in doubt) [Example 223, 1-{2-[(3R)-3-(methylamino)pyrrolidin-1-yl]-1-[3-(trifluoromethyl)phenyl]ethyl}cyclohexanol dihydrochloride]	% Inhibition @ 1 μM (hNET) (1 μM test compound, dihydrochloride, 1 µM): 41.2%
	N[C@H]1CCN(C[C@H](c2cccc(Cl)c2)C2(O)CCCCC2)C1 [Example 387, 1-[(1S)-2-[(3S)-3-aminopyrrolidin-1-yl]-1-(3-chlorophenyl)ethyl]cyclohexanol dihydrochloride]	EC50: 410 nM
84	COc1ccc(C(CN2CCC(N(C)C)CC2)C2(O)CCCCC2)cc1Br (stereo not drawn) [Example 318, 1-{1-(3-bromo-4-methoxyphenyl)-2-[4-(dimethylamino)piperidin-1-yl]ethyl}cyclohexanol dihydrochloride]	
84	NC1CCN(CC(c2ccc(Cl)c(Cl)c2)C2(O)CCCCC2)CC1 (stereo not drawn) [Example 14, 1-[2-(4-aminopiperidin-1-yl)-1-(3,4-dichlorophenyl)ethyl]cyclohexanol dihydrochloride]	EC50: 89 nM
88.5	CN[C@@H]1CCCN(CC(c2ccc(OCc3ccccc3)c(Cl)c2)C2(O)CCCCC2)C1 (stereo partly drawn) [Example 192, 1-{1-[4-(benzyloxy)-3-chlorophenyl]-2-[(3R)-3-(methylamino)piperidin-1-yl]ethyl}cyclohexanol dihydrochloride]	

inhibition at 1 µM [%]	SMILES	further results
49.7	CNC1CCN(CC(c2cccc(Cl)c2)C2CCCCCC2)CC1 (stereo not drawn) [Example 236, 1-[2-(3-chlorophenyl)-2-cycloheptylethyl]-N-methylpiperidin-4-amine dihydrochloride]	
47	NC1CCN(CC(c2cccc3ccccc23)C2(O)CCC2)CC1 (stereo not drawn) [Example 43, 1-[2-(4-aminopiperidin-1-yl)-1-(1-naphthyl)ethyl]cyclobutanol dihydrochloride]	
4.4	OC1CCN(CC(c2cccc(OC(F)(F)F)c2)C2(O)CCCCC2)CC1 (stereo not drawn) [Example 240, 1-{2-(1-hydroxycyclohexyl)-2-[3-(trifluoromethoxy)phenyl]ethyl}piperidin-4-ol hydrochloride]	
54.1	CN[C@@H]1CCN(CC(c2cccc(Cl)c2)C2(O)CCCCC2)C1 (stereo partly drawn) [Example 200, 1-{1-(3-chlorophenyl)-2-[(3R)-3-(methylamino)pyrrolidin-1-yl]ethyl}cyclohexanol dihydrochloride]	
99	OC1([C@H](CN2CCC(N3CCCCC3)CC2)c2cccc(OC(F)(F)F)c2)CCCCC1 [Example 366, 1-{(1S)-2-(1,4′-bipiperidin-1′-yl)-1-[3-(trifluoromethoxy)phenyl]ethyl}cyclohexanol dihydrochloride]	EC50: 110 nM
65	COc1ccc2cc(C(CN3CCC(N4CCCC4)CC3)C3(O)CCCCC3)ccc2c1 (stereo not drawn) [Example 345, 1-[1-(6-methoxy-2-naphthyl)-2-(4-pyrrolidin-1-ylpiperidin-1-yl)ethyl]cyclohexanol dihydrochloride]	EC50: 530 nM
59	COc1ccc2cc(C(CN3CCC(N)CC3)C3(O)CCCCC3)ccc2c1 (stereo not drawn) [Example 342, 1-[2-(4-aminopiperidin-1-yl)-1-(6-methoxy-2-naphthyl)ethyl]cyclohexanol dihydrochloride]	EC50: 390 nM
43.9	CC1CCC(O)(C(CN2CCC(N)CC2)c2cccc(Cl)c2)CC1 (stereo not drawn) [Example 330, 1-[2-(4-aminopiperidin-1-yl)-1-(3-chlorophenyl)ethyl]-4-methylcyclohexanol dihydrochloride]	
79	CNC1CCN(CC(c2ccc(OC)c(Br)c2)C2(O)CCCCC2)CC1 (stereo not drawn) [Example 29, 1-{1-(3-bromo-4-methoxyphenyl)-2-[4-(methylamino)piperidin-1-yl]ethyl}cyclohexanol dihydrochloride]	EC50: 150 nM
	CN(C)[C@@H]1CCN(CC(c2ccc(OCc3ccccc3)cc2)C2(O)CCCCC2)C1 (stereo partly drawn) [Example 381, 1-{1-[4-(benzyloxy)phenyl]-2-[(3R)-3-(dimethylamino)pyrrolidin-1-yl]ethyl}cyclohexanol dihydrochloride]	inhibition at 30 µM: 95%
81.1	CN(C)[C@@H]1CCCN(CC(c2ccc(OCc3ccccc3)c(Cl)c2)C2(O)CCCCC2)C1 (stereo partly drawn) [Example 194, 1-{1-[4-(benzyloxy)-3-chlorophenyl]-2-[(3R)-3-(dimethylamino)piperidin-1-yl]ethyl}cyclohexanol dihydrochloride]	
92.2	N[C@H]1CCCN(CC(c2ccc(OCc3ccccc3)c(Cl)c2)C2(O)CCCCC2)C1 (stereo partly drawn) [Example 196, 1-{2-[(3S)-3-aminopiperidin-1-yl]-1-[4-(benzyloxy)-3-chlorophenyl]ethyl}cyclohexanol dihydrochloride]	
95.4	CN(C)C1CCN(CC(c2cccc(Br)c2)C2(O)CCCCC2)CC1 (stereo not drawn) [Example 319, 1-{1-(3-bromophenyl)-2-[4-(dimethylamino)piperidin-1-yl]ethyl}cyclohexanol dihydrochloride]	
84.8	CN[C@H]1CCN(CC(c2ccc(OCc3ccccc3)cc2)C2(O)CCCCC2)C1 (stereo partly drawn) [Example 212, 1-{1-[4-(benzyloxy)phenyl]-2-[(3S)-3-(methylamino)pyrrolidin-1-yl]ethyl}cyclohexanol dihydrochloride]	
80.7	CN(C)[C@H]1CCN(CC(c2cccc(Cl)c2)C2(O)CCCCC2)C1 (stereo partly drawn) [Example 199, 1-{1-(3-chlorophenyl)-2-[(3S)-3-(dimethylamino)pyrrolidin-1-yl]ethyl}cyclohexanol dihydrochloride]	
	COC1CCN(CC(c2ccc(OCc3ccccc3)c(Cl)c2)C2(O)CCCCC2)CC1 (stereo not drawn) [Example 339, 1-[1-[4-(benzyloxy)-3-chlorophenyl]-2-(4-methoxypiperidin-1-yl)ethyl]cyclohexanol hydrochloride]	inhibition at 30 µM: 94%
50	CN(C)C1CCN(CC(c2cccc(Cl)c2)C(C)(C)O)CC1 (stereo not drawn) [Example 274, 3-(3-chlorophenyl)-4-[4-(dimethylamino)piperidin-1-yl]-2-methylbutan-2-ol dihydrochloride]	

SMILES	inhibition at 1 µM [%]	further results
CN(C)C1CCN(CC(c2cccc(Cl)c2)C2CCCCCC2)CC1 (stereo not drawn) [Example 237, 1-[2-(3-chlorophenyl)-2-cycloheptylethyl]-N,N-dimethylpiperidin-4-amine dihydrochloride]	81.9	
